No end group written: not given here.
Experiments:
ALDH2 = assay: 2-D IEF phosphorylation of ALDH2 in hearts after I/R; design: species or system rat; conditions: cardiac I/R
Description: (§1) An ex vivo model of acute ischemic heart damage was used, which involves a 30 min equilibration period, followed by 30 min of global ischemia, which in turn is followed by 60 min of reperfusion. The hearts were perfused with 1 μM TAT or TAT-conjugated peptide. Normoxic control hearts were subjected to 90 min perfusion in the absence of ischemia. Coronary effluent was collected to determine creatine phosphokinase (CPK) release during the first 30 min of the reperfusion period. At the end of the reperfusion period, hearts were sliced into 1-mm-thick transverse sections and incubated in triphenyltetrazolium chloride solution (TTC, 1% in phosphate buffer, pH 7.4) at 37° C. for 15 min. Infarct size was expressed as a percentage of the risk zone (equivalent to total LV muscle mass) (methods described in Brandman et al., 2007, J. Biol. Chem., 282:4113-4123; Inagaki et al., 2003, Circulation, 108:869-875).
2-D IEF/SDS polyacrylamide gel electrophoresis using rat heart samples was performed as previously described (Chen et al., 2008, Science, 321:1493-1495). 10% SDS gel electrophoresis and Western blotting were carried out by standard methods using PDK2 c-term rabbit (Abgent, Calif., USA), PDH subunit E1 alpha monoclonal (Invitrogen, Calif., USA) and ALDH2 goat (Santa Cruz Biotechnology, CA, USA) antibodies. […]

εPKC = target: T1, εPKC (Homo sapiens, UniProt Q02156); assay: Proteinase K sensitivity of εPKC; type: binding
T1 sequence (Q02156 1-737): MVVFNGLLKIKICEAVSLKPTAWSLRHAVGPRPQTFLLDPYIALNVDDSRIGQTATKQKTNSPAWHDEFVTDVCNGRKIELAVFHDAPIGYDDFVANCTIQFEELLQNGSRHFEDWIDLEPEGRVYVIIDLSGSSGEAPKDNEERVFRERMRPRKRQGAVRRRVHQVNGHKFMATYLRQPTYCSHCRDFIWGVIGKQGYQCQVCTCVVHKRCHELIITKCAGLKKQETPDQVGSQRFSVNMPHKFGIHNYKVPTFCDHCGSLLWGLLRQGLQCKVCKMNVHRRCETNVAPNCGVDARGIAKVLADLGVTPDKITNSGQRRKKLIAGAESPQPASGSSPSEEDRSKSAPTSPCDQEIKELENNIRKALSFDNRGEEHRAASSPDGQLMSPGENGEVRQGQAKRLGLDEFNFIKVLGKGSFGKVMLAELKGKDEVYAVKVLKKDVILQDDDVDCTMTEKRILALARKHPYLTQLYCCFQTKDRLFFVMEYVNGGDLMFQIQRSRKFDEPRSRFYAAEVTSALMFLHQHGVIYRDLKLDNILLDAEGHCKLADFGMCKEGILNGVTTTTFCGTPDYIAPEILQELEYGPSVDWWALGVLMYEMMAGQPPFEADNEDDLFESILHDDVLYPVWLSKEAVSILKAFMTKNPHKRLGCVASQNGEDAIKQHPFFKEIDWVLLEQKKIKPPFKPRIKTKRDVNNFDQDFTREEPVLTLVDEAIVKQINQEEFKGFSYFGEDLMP

βIPKC = βIPKC (Homo sapiens, UniProt P05771); assay: Proteinase K sensitivity of βIPKC; type: binding
E1 subunit of PDH = assay: 2-D IEF phosphorylation of PDH E1 subunit in hearts after I/R; design: species or system rat; conditions: cardiac I/R
Description: as §1, with “108:869-875). […]” for “108:869-875).”
As described above, δPKC phosphorylation of PDK following cardiac ischemia and reperfusion leads to the phosphorylation and a decline in the activity of pyruvate dehydrogenase (PDH) (Churchill et al., 2005, Circ. Res., 97:78-85). […] Since ΨPDK is derived from the PDK homologous sequence in δPKC, it was next determined whether PDK phosphorylation is affected by ΨPDK treatment.

βIPKC, sequence (P05771 whole entry): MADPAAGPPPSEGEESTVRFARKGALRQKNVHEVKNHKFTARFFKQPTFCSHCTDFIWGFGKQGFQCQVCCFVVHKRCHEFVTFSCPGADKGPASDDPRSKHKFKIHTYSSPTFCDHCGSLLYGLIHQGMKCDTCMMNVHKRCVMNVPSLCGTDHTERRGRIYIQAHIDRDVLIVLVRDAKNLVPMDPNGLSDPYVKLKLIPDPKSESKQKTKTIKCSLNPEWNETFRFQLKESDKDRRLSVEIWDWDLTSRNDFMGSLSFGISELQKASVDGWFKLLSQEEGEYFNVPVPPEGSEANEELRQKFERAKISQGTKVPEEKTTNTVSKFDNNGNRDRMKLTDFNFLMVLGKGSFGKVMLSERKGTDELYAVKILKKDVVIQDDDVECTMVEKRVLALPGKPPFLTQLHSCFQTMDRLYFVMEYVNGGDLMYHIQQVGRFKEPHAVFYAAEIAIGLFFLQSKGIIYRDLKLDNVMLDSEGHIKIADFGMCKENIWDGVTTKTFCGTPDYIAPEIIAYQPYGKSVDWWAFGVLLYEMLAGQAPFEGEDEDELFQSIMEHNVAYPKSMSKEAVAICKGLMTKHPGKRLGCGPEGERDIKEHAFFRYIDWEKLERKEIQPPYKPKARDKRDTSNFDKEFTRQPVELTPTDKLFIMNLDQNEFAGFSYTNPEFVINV

ALSTER (not fully specified (C-terminus); also: TAT47-57 conjugated via disulfide) [ΨPDK, for cells and hearts conjugated to TAT47-57 via disulfide bond]
ALDH2 phosphorylation (ALDH2): neither ΨPDK nor δV1-1 affected ALDH2 phosphorylation | sensitivity of εPKC to proteolysis by PK (εPKC): unaffected | sensitivity of βIPKC to proteolysis by PK (βIPKC): unaffected | phosphorylation of E1 subunit of PDH (E1 subunit of PDH): did not occur
